In US7384983B2, “Inhibitor of monoamine uptake” (Eli Lilly and Company, priority 2001, dated 2008):

Tests used:
uptake of serotonin = assay: Microdialysis Assays of Monoamines: inhibition of serotonin uptake; settings: tested essentially as described for microdialysis assays
Method: (§1) Microdialysis Assays of Monoamines
(§2) Sprague-Dawley rats (Harlan or Charles River) weighing 270-300 grams are surgically implanted with microdialysis probes under chloral hydrate/pentobarbital anesthesia (170 and 36 mg/kg i.p. in 30% propylene glycol, 14% ethanol) as described by Perry and Fuller. (Perry and Fuller, Effect of fluoxetine on serotonin and dopamine concentration in rat hypothalamus after administration of fluoxetine plus L-5-hydroxytryptophan, Life Sci., 50, 1683-90 (1992)). A David Kopf stereotaxic instrument is used to implant the probe unilaterally in the hypothalamus at coordinates rostral −1.5 mm, lateral −1.3 mm, and ventral −9.0 mm (Paxinos and Watson, 1986). After a 48-hour recovery period, rats are placed in a large plastic bowl with a mounted liquid swivel system (CMA/120 system for freely moving animals, Bioanalytical Systems, West Lafayette, Ind.). Filtered artificial cerebrospinal fluid (CSF) (150 mM NaCl, 3.0 MM KCl, 1.7 mM CaCl2, and 0.9 mM MgCl2) is perfused through the probe at a rate of […]. […]
(§3) The method used to measure monoamines is as described by Perry and Fuller (1992). […] The electrochemical detector (EG&G, Model 400) for the amine column is set at a potential of 400 mV and a sensitivity of 0.2 nA/V. Basal levels are measured for at least 90 minutes prior to drug administration. […]

uptake of norepinephrine = assay: Microdialysis Assays of Monoamines: inhibition of norepinephrine uptake; assay type: in vivo, Sprague-Dawley rats; settings: tested essentially as described for microdialysis assays
Method: as §1, §2, §3

- Ki (uptake of serotonin): 43 nM
- Ki (uptake of norepinephrine): 3 nM
Compound: CNCC[C@@H](Oc1ccc(O)cc1C)c1ccccc1 [R-(−)-N-methyl 3-((2-methyl-4-hydroxyphenyl)oxy)-3-phenyl-1-aminopropane]
